Source: PubChem BioAssay AID204 (DTP/NCI, 2004)
Where “and” joins values, the source holds several entries; their conditions need not be identical. Identical values can stand only once. Inconclusive results and toxic doses are left out. Rule for the calls: active = survival T/C of 150% or more; inactive = T/C below 125% in these data.

System: BDF1 mice, P288 methotrexate-resistant leukemia, survival T/C
Assay: NCI In Vivo Anticancer Drug Screen. Data for tumor model P288 Lymphocytic Leukemia resistant to methotrexate; NSC 740 (intraperitoneal) in B6D2F1 (BDF1) mice
Conditions: endpoint: median survival time, higher = longer survival
Description: The antitumor activity of compounds was measured in mice bearing transplantable tumors. Survival or tumor size were measured and the results are expressed as the measurement made in the treated group (T) divided by the measurement made in the vehicle treated control group (C). The tumor model used in this assay is P288 Lymphocytic Leukemia resistant to methotrexate; NSC 740 (intraperitoneal) in B6D2F1 (BDF1) mice

[1] = dose: 6.25 mg/kg/injection, schedule: Q01DX010 (ip), vehicle: saline
[2] = dose: 12.5 mg/kg/injection, schedule: Q01DX010 (ip), vehicle: saline
[3] = dose: 12.0 mg/kg/injection, schedule: Q01DX010 (ip), vehicle: saline
[4] = dose: 10.0 mg/kg/injection, schedule: Q01DX010 (ip), vehicle: saline
[5] = dose: 20.0 mg/kg/injection, schedule: Q01DX010 (ip), vehicle: saline
[6] = dose: 6.0 mg/kg/injection, schedule: Q01DX010 (ip), vehicle: saline
[7] = dose: 8.0 mg/kg/injection, schedule: Q01DX010 (ip), vehicle: saline
[8] = dose: 25.0 mg/kg/injection, schedule: Q01DX010 (ip), vehicle: saline
[9] = dose: 50.0 mg/kg/injection, schedule: Q01DX010 (ip), vehicle: saline
[10] = dose: 2.0 mg/kg/injection, schedule: Q01DX010 (ip), vehicle: saline
[11] = dose: 4.0 mg/kg/injection, schedule: Q01DX010 (ip), vehicle: saline
[12] = dose: 100.0 mg/kg/injection, schedule: Q01DX010 (ip), vehicle: saline
[13] = dose: 200.0 mg/kg/injection, schedule: Q01DX010 (ip), vehicle: saline

Measured: T/C

CC/C(=C(/CC)c1ccc(O)cc1)c1ccc(O)cc1
inactive: dose: 12.5 mg/kg/injection, schedule: Q01DX010 (sc), vehicle: steriod suspending solution 100 % of control and 110 % of control | dose: 25.0 mg/kg/injection, schedule: Q01DX010 (sc), vehicle: steriod suspending solution 105 % of control | dose: 50.0 mg/kg/injection, schedule: Q01DX010 (sc), vehicle: steriod suspending solution 100 % of control and 105 % of control | dose: 100.0 mg/kg/injection, schedule: Q01DX010 (sc), vehicle: steriod suspending solution 90 % of control and 100 % of control

O=C(O)CCCc1ccc(N(CCCl)CCCl)cc1
inactive: dose: 3.13 mg/kg/injection, schedule: Q01DX010 (ip), vehicle: saline 90 % of control and 95 % of control | [1] 91 % of control and 100 % of control | [2] 115 % of control

N=C(N)c1ccc(Nc2ccc(C(=N)N)cc2)cc1
inactive: [3] 90 % of control

CC(=O)N(C)C
inactive: dose: 62.5 mg/kg/injection, schedule: Q01DX010 (ip), vehicle: saline 95 % of control and 120 % of control | dose: 125.0 mg/kg/injection, schedule: Q01DX010 (ip), vehicle: saline 90 % of control and 95 % of control | dose: 250.0 mg/kg/injection, schedule: Q01DX010 (ip), vehicle: saline 105 % of control and 110 % of control | dose: 500.0 mg/kg/injection, schedule: Q01DX010 (ip), vehicle: saline 110 % of control

CCOC(=O)c1[nH]c2ccccc2c1CN(CCCl)CCCl
inactive: [4] 96 % of control | [5] 111 % of control

C[C@H](N)C(=O)N[C@@H]1[C@H]2C(=C(O)C[C@@H](O)[C@@H]2O)C(=O)O[C@@H]1C
inactive: dose: 150.0 mg/kg/injection, schedule: Q01DX010 (ip), vehicle: saline 112 % of control
active: dose: 600.0 mg/kg/injection, schedule: Q01DX010 (ip), vehicle: saline 150 % of control | dose: 1200.0 mg/kg/injection, schedule: Q01DX010 (ip), vehicle: saline 183 % of control

O=C(Nc1ccc(C2=NCCN2)cc1)c1ccc(C(=O)Nc2ccc(C3=NCCN3)cc2)c([N+](=O)[O-])c1
active: [6] 150 % of control | [7] 160 % of control and 172 % of control | [3] 238 % of control and 285 % of control | dose: 18.0 mg/kg/injection, schedule: Q01DX010 (ip), vehicle: saline 161 % of control and 165 % of control

CS(=O)(=O)OCCCCOS(C)(=O)=O
inactive: [1] 87 % of control | [2] 106 % of control | [8] 93 % of control | [9] 87 % of control

CCN(CC)c1ccc2cc3ccc(=[N+](CC)CC)cc-3oc2c1
inactive: dose: 1.0 mg/kg/injection, schedule: Q01DX010 (ip), vehicle: saline 90 % of control | [10] 104 % of control | [11] 100 % of control | [7] 90 % of control

C=CC(CN1CC1)OC(C)=O (configuration not stated)
inactive: [10] 90 % of control and 95 % of control | [11] 100 % of control and 118 % of control | dose: 16.0 mg/kg/injection, schedule: Q01DX010 (ip), vehicle: saline 95 % of control and 100 % of control

CC(=O)Nc1ccc2nc3ccc(NC(C)=O)cc3[n+](-c3ccccc3)c2c1
inactive: [8] 122 % of control | [9] 110 % of control | [12] 106 % of control | [13] 100 % of control and 113 % of control

COc1cc(-c2ccc(Nc3ccccc3C(=O)O)c(OC)c2)ccc1Nc1ccccc1C(=O)O
active: [8] 154 % of control | [9] 163 % of control | [12] 172 % of control

CS(=O)(=O)OCC(O)C(O)COS(C)(=O)=O (configuration not stated)
inactive: [13] 86 % of control | dose: 400.0 mg/kg/injection, schedule: Q01DX010 (ip), vehicle: saline 93 % of control | dose: 800.0 mg/kg/injection, schedule: Q01DX010 (ip), vehicle: saline 100 % of control

CN(C)c1ccc(Nc2c3ccccc3nc3ccccc23)cc1
inactive: dose: 36.0 mg/kg/injection, schedule: Q01DX010 (ip), vehicle: saline 95 % of control and 115 % of control | dose: 54.0 mg/kg/injection, schedule: Q01DX010 (ip), vehicle: saline 115 % of control and 116 % of control | dose: 120.0 mg/kg/injection, schedule: Q01DX010 (ip), vehicle: saline 120 % of control

Nc1ncnc2[nH]ncc12
inactive: dose: 1.5 mg/kg/injection, schedule: Q01DX010 (ip), vehicle: saline 100 % of control | dose: 3.0 mg/kg/injection, schedule: Q01DX010 (ip), vehicle: saline 95 % of control and 100 % of control | [6] 100 % of control and 105 % of control | [3] 90 % of control and 110 % of control

Cc1cc(N(CCCl)CCCl)ccc1N=Nc1ccccc1C(=O)O
inactive: dose: 5.0 mg/kg/injection, schedule: Q01DX010 (ip), vehicle: saline 104 % of control and 105 % of control | [4] 109 % of control and 110 % of control | [5] 115 % of control
